Reference: article PMC4563140 (EBioMedicine, 2015)
In brackets after ≈: the same amount, converted by molar mass. Several values for one entry are separate records, joined by “and”; a condition that tells them apart may be missing. Identical values can stand only once. Like-named read-outs stand apart in the source and are kept apart here.

How the values were obtained:
[1] = tested on: M.tb isolates from BALB/c mice after four months of treatment; assay: microbe, parasite or virus in culture; format: cell-based; details: Mycobacterium tuberculosis, read-out: minimum inhibitory concentration
[2] = for rifampin area under curve (0–18 h): rifampin 10 mg/kg
M.tb H37Rv = assay: Relapse 3 months after ending treatment, BALB/c mice; format: in vivo
[3] = tested on: JAK tyrosine kinase activity; details: ref Dowty et al., 2014; cited from earlier work
[4] = Observation of adverse effects in mice during the study period; format: in vivo; details: tofacitinib 30 mg/kg/day (the higher dose)
wild type H37Rv = assay: microbe, parasite or virus in culture; format: cell-based; details: Mycobacterium tuberculosis, read-out: minimal inhibitory concentration
[5] = human, recommended doses; ref Dowty et al., 2014; cited from earlier work
[6] = tested on: bone marrow-derived macrophages (BMDM) from BALB/c and C3HeB/FeJ mice; format: cell-based

SMILES	MIC [1] [µg/mL]	rifampin area under curve (0–18 h) ([2]; mouse serum, co-administered tofacitinib 15 mg/kg) [μg/ml·H]	rifampin area under curve (0–18 h) ([2]; mouse serum, co-administered tofacitinib 22.5 mg/kg) [μg/ml·H]	rifampin area under curve (0–18 h) ([2]; mouse serum, co-administered tofacitinib 30 mg/kg) [μg/ml·H]	relapse rate, Std-Rx plus tofacitinib versus Std-Rx alone (M.tb H37Rv)	concentration of tofacitinib required to inhibit JAK tyrosine kinase activity [3]	adverse effects in mice [4]	MIC (wild type H37Rv) [µg/mL]	peak tofacitinib serum concentration in mice during PK experiments ([2]; as stated in section 3.3) [µg/mL]	effect of tofacitinib co-administration on the serum concentration of rifampin ([2]; mice, tofacitinib 15, 22.5, 30 mg/kg/day with rifampin 10 mg/kg)	concentration of tofacitinib 2 h after the dose ([2]; mouse serum, with or without co-administration of rifampin, all doses tested) [ng/mL]	average exposure in mice relative to patients with rheumatoid arthritis on 10 mg per day ([2]; tofacitinib 30 mg/kg/day in two divided doses)	elimination half-life [5]	effect on cytokine levels (TNF-α, IL-1β) of BMDMs [6]
NNC(=O)c1ccncc1 [isoniazid]	0.04 (≈ 0.292 µM)	–	–	–	–	–	–	–	–	–	–	–	–	–
CO[C@H]1/C=C/O[C@@]2(C)Oc3c(C)c(O)c4c(O)c(c(/C=N/N5CCN(C)CC5)c(O)c4c3C2=O)NC(=O)/C(C)=C\C=C\[C@H](C)[C@H](O)[C@@H](C)[C@@H](O)[C@@H](C)[C@H](OC(C)=O)[C@@H]1C [rifampin]	0.25 (≈ 0.304 µM)	77	93	103	–	–	–	–	–	–	–	–	–	–
C[C@@H]1CCN(C(=O)CC#N)C[C@@H]1N(C)c1ncnc2[nH]ccc12 [tofacitinib]	–	–	–	–	did not differ	100 nM and 31.2 ng/mL	did not observe any adverse effects	> 64	3	no effect	250 to 500	at least three to five	~ 3 h	did not alter the cytokine levels
